In patent US12329158B2, “Large-scale methods of uniformly coating packaging surfaces with a volatile antimicrobial to preserve food freshness” (AGROFRESH INC., priority 2013, dated 2025):
Values after ≈ are worked out from the molar mass of the structure shown.

Key:
Glomerella cingulata = assay: Volatile MIC assay (Example 11); assay type: cell-based; details: Colletotrichum gloeosporioides, G. cingulata
Description: A 3-mL volume of full-strength Potato Dextrose Agar (PDA) is added to each well. After cooling, 1 μL of 1×10^5 spores per mL of Botrytis cinerea, Penicillium expansum, Alternaria alternata, Glomerella cingulata, Penicillium digitatum, Monilinia fruticola, Aspergillus brasiliensis, Colletotrichum acutatum, Fusarium sambucinum, Phytophthora capsici, Geotrichum candidum, Aspergillus niger, Diplodia gossypina or Diaporthe citrii suspension is spotted onto the center of the agar. […] The headspace around the inoculum is then sealed inside the well by the film with the adhering disk containing the fungicide by inverting the plates over the treated disks and sealing to prevent any of the chemical from flaking from the disk and falling onto the inoculated agar. After 3 days of storage at 23° C., cultures are evaluated for percent growth relative to control.

[1] = Solubility in methanol (remark in Example 25); assay type: physicochemical; details: room temperature
Botrytis cinerea [2] = assay: Gray mold on strawberry, volatile assay (Example 23); assay type: in vivo
Description: Eight strawberries (per repetition, in triplicate) are placed in an industry standard 1-lb PET clamshell with the stem-end facing down.
Compound A is mixed acetone and 250 μL of the mixture is pipetted into a small glass tube. […] After incubation, fruits are evaluated for disease (scale 0 to 4, with ≤1 indicating marketable fruit and 4 indicating ≥50% of fruit surface covered by pathogen) up to 4 days at 21° C.

Penicillium digitatum = assay: Green mold on orange, volatile assay (Example 25); assay type: in vivo; details: 50 mg/L, day 3 at 21 C after 5 days at 1 C
Botrytis cinerea [3] = assay: Painting on base, lid or base and lid of clamshells; strawberries (Example 6); assay type: in vivo
Description: Five milligrams of Compound A was dissolved in 1 ml of ethanol prior to being uniformly administered to the interior of the clamshell by painting or spraying, and then dried for 5 minutes. After coating the clamshells with Compound A using various application techniques (i.e., sublimation, spraying, or painting), eight ethanol-washed strawberries were placed in the clamshell with stem end facing downwards. Each strawberry fruit was wounded using a T15 screwdriver tip to a uniform depth of eight mm (8 mm). […] Uninoculated strawberries were removed from their commercial package, and directly transferred into treated clamshells without any washing or inoculation steps.
Treated clamshells lids were closed, and then placed at 1° C. for an initial time period of 5 days. Clamshells were then removed from low temperature, and held for a second time period of 6 days at room temperature where the point of inoculation on the strawberry fruits was assessed for indication of disease incidence reported as a percentage (%). Severity of disease incidence was also reported.
This in vivo assay was used to evaluate the ability of Compound A to volatilize from different locations of a clamshell (i.e., the base and/or the lid of the clamshell) in order to control or inhibit fruit infection by pathogenic microorganism, Botrytis cinerea. This experiment was conducted exactly as described in Example 1, with a few exceptions. Compound A was administered to the clamshell by painting only. 5 mg of Compound A was painted onto the surface of the base of the clamshell or the lid of the clamshell (i.e., 5 mg/clamshell treatment rate). 2.5 mg of Compound A was painted onto the base and the lid of the clamshell (for a total of 5 mg/clamshell treatment rate). The clamshell was then permitted to dry for 5 minutes. Strawberries were inoculated with Botrytis cinerea, placed within the clamshell for an initial time period of 5 days, and assessed for disease incidence and severity over a second time period of 7 days as described in Example 1.

[4] = Inoculated Fruit, painted on Base and Lid, 2.5/2.5 mg, Day 0
[5] = Inoculated Fruit, painted on Base and Lid, 2.5/2.5 mg, Day 1
[6] = Inoculated Fruit, painted on Base and Lid, 2.5/2.5 mg, Day 2
[7] = Inoculated Fruit, painted on Base and Lid, 2.5/2.5 mg, Day 3
[8] = Inoculated Fruit, painted on Base and Lid, 2.5/2.5 mg, Day 4
[9] = Inoculated Fruit, painted on Base and Lid, 2.5/2.5 mg, Day 5
[10] = Inoculated Fruit, painted on Base and Lid, 2.5/2.5 mg, Day 6
[11] = Inoculated Fruit, painted on Base and Lid, 2.5/2.5 mg, Day 7
[12] = Inoculated Fruit, painted on Base, 5 mg, Day 7
[13] = Uninoculated Fruit, painted on Base, 5 mg, Day 0
[14] = Uninoculated Fruit, painted on Base, 5 mg, Day 1
[15] = Uninoculated Fruit, painted on Base, 5 mg, Day 2
[16] = Uninoculated Fruit, painted on Base, 5 mg, Day 3
[17] = Uninoculated Fruit, painted on Base, 5 mg, Day 4

OB1OCc2cc(F)ccc21 [Compound A, 5-fluoro-1,3-dihydro-1-hydroxy-2,1-benzoxaborole]
MIC (Glomerella cingulata): 17.9 µg/mL (≈ 118 µM)
Solubility in methanol (in words) [1]: not soluble in methanol at room temperature
Disease Severity (0 to 4) (Botrytis cinerea [2]; 0.02 mg/L, Day 0): 0.0
Disease Severity (0 to 4) (Botrytis cinerea [2]; 0.02 mg/L, Day 1): 0.0
Disease Severity (0 to 4) (Botrytis cinerea [2]; 0.02 mg/L, Day 2): 0.1
Disease Severity (0 to 4) (Botrytis cinerea [2]; 0.02 mg/L, Day 3): 0.2
Disease Severity (0 to 4) (Botrytis cinerea [2]; 0.02 mg/L, Day 4): 0.7
Disease Severity (0 to 4) (Botrytis cinerea [2]; 0.1 mg/L, Day 0): 0.0
Disease Severity (0 to 4) (Botrytis cinerea [2]; 0.1 mg/L, Day 1): 0.0
Disease Severity (0 to 4) (Botrytis cinerea [2]; 0.1 mg/L, Day 2): 0.0
Disease Severity (0 to 4) (Botrytis cinerea [2]; 0.1 mg/L, Day 3): 0.0
Disease Severity (0 to 4) (Botrytis cinerea [2]; 0.1 mg/L, Day 4): 0.0
Disease Severity (0 to 4) (Botrytis cinerea [2]; 0.5 mg/L, Day 0): 0.0
Disease Severity (0 to 4) (Botrytis cinerea [2]; 0.5 mg/L, Day 1): 0.0
Disease Severity (0 to 4) (Botrytis cinerea [2]; 0.5 mg/L, Day 2): 0.0
Disease Severity (0 to 4) (Botrytis cinerea [2]; 0.5 mg/L, Day 3): 0.0
Disease Severity (0 to 4) (Botrytis cinerea [2]; 0.5 mg/L, Day 4): 0.0
Disease Severity (0 to 4) (Botrytis cinerea [2]; 2.5 mg/L, Day 0): 0.0
Disease Severity (0 to 4) (Botrytis cinerea [2]; 2.5 mg/L, Day 1): 0.0
Disease Severity (0 to 4) (Botrytis cinerea [2]; 2.5 mg/L, Day 2): 0.0
Disease Severity (0 to 4) (Botrytis cinerea [2]; 2.5 mg/L, Day 3): 0.0
Disease Severity (0 to 4) (Botrytis cinerea [2]; 2.5 mg/L, Day 4): 0.0
Orange Sporulation (mm) (Penicillium digitatum): 0.0 mm
Gray Mold Incidence (%) (Botrytis cinerea [3]; [4]): 0.0%
Gray Mold Severity (0-4) (Botrytis cinerea [3]; [4]): 0.0
Gray Mold Incidence (%) (Botrytis cinerea [3]; [5]): 0.0%
Gray Mold Severity (0-4) (Botrytis cinerea [3]; [5]): 0.0
Gray Mold Incidence (%) (Botrytis cinerea [3]; [6]): 0.0%
Gray Mold Severity (0-4) (Botrytis cinerea [3]; [6]): 0.0
Gray Mold Incidence (%) (Botrytis cinerea [3]; [7]): 0.0%
Gray Mold Severity (0-4) (Botrytis cinerea [3]; [7]): 0.0
Gray Mold Incidence (%) (Botrytis cinerea [3]; [8]): 0.0%
Gray Mold Severity (0-4) (Botrytis cinerea [3]; [8]): 0.0
Gray Mold Incidence (%) (Botrytis cinerea [3]; [9]): 0.0%
Gray Mold Severity (0-4) (Botrytis cinerea [3]; [9]): 0.0
Gray Mold Incidence (%) (Botrytis cinerea [3]; [10]): 0.0%
Gray Mold Severity (0-4) (Botrytis cinerea [3]; [10]): 0.0
Gray Mold Incidence (%) (Botrytis cinerea [3]; [11]): 0.0%
Gray Mold Severity (0-4) (Botrytis cinerea [3]; [11]): 0.0
Gray Mold Severity (0-4) (Botrytis cinerea [3]; Inoculated Fruit, painted on Base, 5 mg, Day 0): 0.0
Gray Mold Severity (0-4) (Botrytis cinerea [3]; Inoculated Fruit, painted on Base, 5 mg, Day 1): 0.0
Gray Mold Severity (0-4) (Botrytis cinerea [3]; Inoculated Fruit, painted on Base, 5 mg, Day 2): 0.1
Gray Mold Severity (0-4) (Botrytis cinerea [3]; Inoculated Fruit, painted on Base, 5 mg, Day 3): 0.1
Gray Mold Severity (0-4) (Botrytis cinerea [3]; Inoculated Fruit, painted on Base, 5 mg, Day 4): 0.0
Gray Mold Severity (0-4) (Botrytis cinerea [3]; Inoculated Fruit, painted on Base, 5 mg, Day 5): 0.0
Gray Mold Severity (0-4) (Botrytis cinerea [3]; Inoculated Fruit, painted on Base, 5 mg, Day 6): 0.2
Gray Mold Incidence (%) (Botrytis cinerea [3]; [12]): 18.8%
Gray Mold Severity (0-4) (Botrytis cinerea [3]; [12]): 0.3
Gray Mold Severity (0-4) (Botrytis cinerea [3]; Inoculated Fruit, painted on Lid, 5 mg, Day 0): 0.0
Gray Mold Severity (0-4) (Botrytis cinerea [3]; Inoculated Fruit, painted on Lid, 5 mg, Day 1): 0.0
Gray Mold Severity (0-4) (Botrytis cinerea [3]; Inoculated Fruit, painted on Lid, 5 mg, Day 2): 0.0
Gray Mold Severity (0-4) (Botrytis cinerea [3]; Inoculated Fruit, painted on Lid, 5 mg, Day 3): 0.0
Gray Mold Severity (0-4) (Botrytis cinerea [3]; Inoculated Fruit, painted on Lid, 5 mg, Day 4): 0.0
Gray Mold Severity (0-4) (Botrytis cinerea [3]; Inoculated Fruit, painted on Lid, 5 mg, Day 5): 0.0
Gray Mold Severity (0-4) (Botrytis cinerea [3]; Inoculated Fruit, painted on Lid, 5 mg, Day 6): 0.0
Gray Mold Severity (0-4) (Botrytis cinerea [3]; Inoculated Fruit, painted on Lid, 5 mg, Day 7): 0.0
Gray Mold Severity (0-4) (Botrytis cinerea [3]; Uninoculated Fruit, painted on Base and Lid, 2.5/2.5 mg, Day 0): 0.0
Gray Mold Severity (0-4) (Botrytis cinerea [3]; Uninoculated Fruit, painted on Base and Lid, 2.5/2.5 mg, Day 1): 0.0
Gray Mold Severity (0-4) (Botrytis cinerea [3]; Uninoculated Fruit, painted on Base and Lid, 2.5/2.5 mg, Day 2): 0.0
Gray Mold Severity (0-4) (Botrytis cinerea [3]; Uninoculated Fruit, painted on Base and Lid, 2.5/2.5 mg, Day 3): 0.2
Gray Mold Severity (0-4) (Botrytis cinerea [3]; Uninoculated Fruit, painted on Base and Lid, 2.5/2.5 mg, Day 4): 0.8
Gray Mold Severity (0-4) (Botrytis cinerea [3]; Uninoculated Fruit, painted on Base and Lid, 2.5/2.5 mg, Day 5): 1.5
Gray Mold Severity (0-4) (Botrytis cinerea [3]; Uninoculated Fruit, painted on Base and Lid, 2.5/2.5 mg, Day 6): 1.5
Gray Mold Severity (0-4) (Botrytis cinerea [3]; Uninoculated Fruit, painted on Base and Lid, 2.5/2.5 mg, Day 7): 1.5
Gray Mold Incidence (%) (Botrytis cinerea [3]; [13]): 0.0%
Gray Mold Severity (0-4) (Botrytis cinerea [3]; [13]): 0.0
Gray Mold Incidence (%) (Botrytis cinerea [3]; [14]): 0.0%
Gray Mold Severity (0-4) (Botrytis cinerea [3]; [14]): 0.0
Gray Mold Incidence (%) (Botrytis cinerea [3]; [15]): 0.0%
Gray Mold Severity (0-4) (Botrytis cinerea [3]; [15]): 0.0
Gray Mold Incidence (%) (Botrytis cinerea [3]; [16]): 0.0%
Gray Mold Severity (0-4) (Botrytis cinerea [3]; [16]): 0.0
Gray Mold Incidence (%) (Botrytis cinerea [3]; [17]): 2.2%
Gray Mold Severity (0-4) (Botrytis cinerea [3]; [17]): 0.3
Gray Mold Severity (0-4) (Botrytis cinerea [3]; Uninoculated Fruit, painted on Base, 5 mg, Day 5): 0.8
Gray Mold Severity (0-4) (Botrytis cinerea [3]; Uninoculated Fruit, painted on Base, 5 mg, Day 6): 1.2
Gray Mold Severity (0-4) (Botrytis cinerea [3]; Uninoculated Fruit, painted on Base, 5 mg, Day 7): 1.5
Gray Mold Severity (0-4) (Botrytis cinerea [3]; Uninoculated Fruit, painted on Lid, 5 mg, Day 0): 0.0
Gray Mold Severity (0-4) (Botrytis cinerea [3]; Uninoculated Fruit, painted on Lid, 5 mg, Day 1): 0.0
Gray Mold Severity (0-4) (Botrytis cinerea [3]; Uninoculated Fruit, painted on Lid, 5 mg, Day 2): 0.0
Gray Mold Severity (0-4) (Botrytis cinerea [3]; Uninoculated Fruit, painted on Lid, 5 mg, Day 3): 0.2
Gray Mold Severity (0-4) (Botrytis cinerea [3]; Uninoculated Fruit, painted on Lid, 5 mg, Day 4): 1.2
Gray Mold Severity (0-4) (Botrytis cinerea [3]; Uninoculated Fruit, painted on Lid, 5 mg, Day 5): 2.0
Gray Mold Severity (0-4) (Botrytis cinerea [3]; Uninoculated Fruit, painted on Lid, 5 mg, Day 6): 2.0
Gray Mold Severity (0-4) (Botrytis cinerea [3]; Uninoculated Fruit, painted on Lid, 5 mg, Day 7): 2.5
